Measurements as given in patent US9630977B2, “Cephalosporin derivatives and pharmaceutical compositions thereof” (Legochem Biosciences, Inc., priority 2011, dated 2017).
Converted amounts (≈) assume the structure as drawn. Where two headings read alike, the source gives them in different places.

Key:
Assay in all cases: In vitro antibacterial activity test (broth microdilution)
Type in all cases: cell-based
A. baumannii 46 = tested on: A. baumannii 46
Method: (§1) To evaluate antibacterial activity of each of the compounds of Examples 1 to 68, in vitro antibacterial activity test was performed.
(§2) The in vitro antibacterial activity was evaluated by measuring MIC90 (ug/mL) of each of the compounds of Examples 1 to 68, which is defined as the lowest concentration of an antibiotic that will inhibit the visible growth of 90% of microorganisms after incubation as compared with a control group to which the antibiotic is not treated. MIC90 values were measured by the broth microdilution method developed by the Clinical and Laboratory Standards Institute (CLSI) (see CLSI M7-A5, Methods for Dilution Antimicrobial Susceptibility Test for Bacteria that Grow Aerobically-Fifth Edition (2000): CLSI, Villanova, Pa.).
(§3) In vitro antibacterial activity was measured with respect to the following 19 clinical isolates: M. catarrhalis; P. aeruginosa (5 strains); K. pneumoniae (6 strains); A. baumannii (3 strains); E. coli (2 strains); A. calcoaceticus; and E. cloacae.
(§4) Test compounds each (the cephalosporin derivative compounds prepared in Examples 1 to 68) were dissolved in DMSO at the concentration of 10,240 ug/mL, were diluted by two fold with DMSO, and then were diluted by twenty fold with sterilized distilled water. The final concentration in the antibacterial activity test was in the range of […] to 128 ug/mL, and the final concentration of DMSO used as an adjuvant was 2.5% (V/V).

A. baumannii 49 = tested on: A. baumannii 49
Method: as §1, §2, §3, §4

A. baumannii 52 = tested on: A. baumannii 52
Method: as §1, §2, §3, §4

[1] = tested on: A. calcoaceticus ATCC15473
Method: as §1, §2, §3, §4

E. cloacae β19 = tested on: E. cloacae β19
Method: as §1, §2, §3, §4

E. coli AG100 = tested on: E. coli AG100
Method: as §1, §2, §3, §4

E. coli β4 = tested on: E. coli β4
Method: as §1, §2, §3, §4

K. pneumoniae 2011E = tested on: K. pneumoniae 2011E
Method: as §1, §2, §3, §4

K. pneumoniae β10 = tested on: K. pneumoniae β10
Method: as §1, §2, §3, §4

K. pneumoniae β11 = tested on: K. pneumoniae β11
Method: as §1, §2, §3, §4

K. pneumoniae β13 = tested on: K. pneumoniae β13
Method: as §1, §2, §3, §4

K. pneumoniae β14 = tested on: K. pneumoniae β14
Method: as §1, §2, §3, §4

K. pneumoniae β9 = tested on: K. pneumoniae β9
Method: as §1, §2, §3, §4

M. catarrhalis 2524 = conditions: Moraxella catarrhalis
Method: as §1, §2, §3, §4

P. aeruginosa 1912E = tested on: P. aeruginosa 1912E
Method: as §1, §2, §3, §4

P. aeruginosa 37 = tested on: P. aeruginosa 37
Method: as §1, §2, §3, §4

P. aeruginosa 40 = tested on: P. aeruginosa 40
Method: as §1, §2, §3, §4

P. aeruginosa 43 = tested on: P. aeruginosa 43
Method: as §1, §2, §3, §4

P. aeruginosa 6065Y = conditions: Pseudomonas aeruginosa
Method: as §1, §2, §3, §4

[2] = Acinetobacter baumannii, 46, A. baumannii 46
[3] = Acinetobacter baumannii, 49, A. baumannii 49
[4] = Acinetobacter calcoaceticus, ATCC15473, A. calcoaceticus ATCC15473
[5] = Pseudomonas aeruginosa, 37, P. aeruginosa 37
[6] = Acinetobacter baumannii, A. baumannii 46, read-out: MIC90
[7] = Acinetobacter baumannii, A. baumannii 49, read-out: MIC90
[8] = Acinetobacter baumannii, A. baumannii 52, read-out: MIC90
[9] = Acinetobacter calcoaceticus, A. calcoaceticus ATCC15473, read-out: MIC90
[10] = Enterobacter cloacae, read-out: MIC90
[11] = Escherichia coli, AG100, E. coli AG100, read-out: MIC90
[12] = Escherichia coli, read-out: MIC90
[13] = Klebsiella pneumoniae, 2011E, K. pneumoniae 2011E, read-out: MIC90
[14] = Klebsiella pneumoniae, K. pneumoniae β10, read-out: MIC90
[15] = Klebsiella pneumoniae, K. pneumoniae β11, read-out: MIC90
[16] = Klebsiella pneumoniae, K. pneumoniae β13, read-out: MIC90
[17] = Klebsiella pneumoniae, read-out: MIC90
[18] = Klebsiella pneumoniae, K. pneumoniae β9, read-out: MIC90
[19] = M. catarrhalis 2524, read-out: MIC90
[20] = Pseudomonas aeruginosa, 1912E, read-out: MIC90
[21] = Pseudomonas aeruginosa, 37, P. aeruginosa 37, read-out: MIC90
[22] = Pseudomonas aeruginosa, 40, P. aeruginosa 40, read-out: MIC90
[23] = Pseudomonas aeruginosa, P. aeruginosa 43, read-out: MIC90

CC(C)(O/N=C(\C(=O)N[C@@H]1C(=O)N2C(C(=O)[O-])=C(/C=C/C[n+]3cnc(N)c(NC(=O)CCN)c3)CSC12)c1nsc(N)n1)C(=O)O (some centres unmarked) [Compound 61]
MIC90 (A. baumannii 46; [2]): 128 µg/mL (≈ 189 µM)
MIC90 (A. baumannii 49; [3]): 128 µg/mL (≈ 189 µM)
MIC90 (A. baumannii 52; Acinetobacter baumannii, 52): 128 µg/mL (≈ 189 µM)
MIC90 [1, 4]: 1 µg/mL (≈ 1.48 µM)
MIC90 (E. cloacae β19; Enterobacter cloacae): 16 µg/mL (≈ 23.7 µM)
MIC90 (E. coli AG100; Escherichia coli, AG100): 0.125 µg/mL (≈ 0.185 µM)
MIC90 (E. coli β4; Escherichia coli): 0.125 µg/mL (≈ 0.185 µM)
MIC90 (K. pneumoniae 2011E; Klebsiella pneumoniae, 2011E): 0.25 µg/mL (≈ 0.37 µM)
MIC90 (K. pneumoniae β10; Klebsiella pneumoniae): 1 µg/mL (≈ 1.48 µM)
MIC90 (K. pneumoniae β11; Klebsiella pneumoniae): > 128 µg/mL
MIC90 (K. pneumoniae β13; Klebsiella pneumoniae): 2 µg/mL (≈ 2.96 µM)
MIC90 (K. pneumoniae β14; Klebsiella pneumoniae): 4 µg/mL (≈ 5.92 µM)
MIC90 (K. pneumoniae β9; Klebsiella pneumoniae): 16 µg/mL (≈ 23.7 µM)
MIC90 (M. catarrhalis 2524; 2524): < 0.0625 µg/mL
MIC90 (P. aeruginosa 1912E; Pseudomonas aeruginosa, 1912E): 2 µg/mL (≈ 2.96 µM)
MIC90 (P. aeruginosa 37; [5]): 32 µg/mL (≈ 47.4 µM)
MIC90 (P. aeruginosa 40; Pseudomonas aeruginosa, 40): 2 µg/mL (≈ 2.96 µM)
MIC90 (P. aeruginosa 43; Pseudomonas aeruginosa, 43): > 128 µg/mL
MIC90 (P. aeruginosa 6065Y; 6065Y): 32 µg/mL (≈ 47.4 µM)

C[C@H](O/N=C(\C(=O)N[C@@H]1C(=O)N2C(C(=O)[O-])=C(C[n+]3cnc(N)c(NCCNC(=O)c4cc(=O)c(O)c[nH]4)c3)CSC12)c1nc(N)sc1Cl)C(=O)O (some centres unmarked) [Compound 17]
MIC90 (A. baumannii 46; [6]): 16 µg/mL (≈ 20.6 µM)
MIC90 (A. baumannii 49; [7]): 4 µg/mL (≈ 5.14 µM)
MIC90 (A. baumannii 52; [8]): 2 µg/mL (≈ 2.57 µM)
MIC90 [1, 9]: 0.5 µg/mL (≈ 0.643 µM)
MIC90 (E. cloacae β19; [10]): 2 µg/mL (≈ 2.57 µM)
MIC90 (E. coli AG100; [11]): 1 µg/mL (≈ 1.29 µM)
MIC90 (E. coli β4; [12]): 4 µg/mL (≈ 5.14 µM)
MIC90 (K. pneumoniae 2011E; [13]): 4 µg/mL (≈ 5.14 µM)
MIC90 (K. pneumoniae β10; [14]): 4 µg/mL (≈ 5.14 µM)
MIC90 (K. pneumoniae β11; [15]): 32 µg/mL (≈ 41.1 µM)
MIC90 (K. pneumoniae β13; [16]): 1 µg/mL (≈ 1.29 µM)
MIC90 (K. pneumoniae β14; [17]): 32 µg/mL (≈ 41.1 µM)
MIC90 (K. pneumoniae β9; [18]): 1 µg/mL (≈ 1.29 µM)
MIC90 (M. catarrhalis 2524; [19]): 0.125 µg/mL (≈ 0.161 µM)
MIC90 (P. aeruginosa 1912E; [20]): 2 µg/mL (≈ 2.57 µM)
MIC90 (P. aeruginosa 37; [21]): 8 µg/mL (≈ 10.3 µM)
MIC90 (P. aeruginosa 40; [22]): 8 µg/mL (≈ 10.3 µM)
MIC90 (P. aeruginosa 43; [23]): 2 µg/mL (≈ 2.57 µM)
MIC90 (P. aeruginosa 6065Y; read-out: MIC90): 2 µg/mL (≈ 2.57 µM)

CC(C)(O/N=C(\C(=O)N[C@@H]1C(=O)N2C(C(=O)[O-])=C(/C=C/C[n+]3cnc(N)c(NC(=O)CCNC(=O)c4cc(=O)c(O)cn4O)c3)CSC12)c1csc(N)n1)C(=O)O (some centres unmarked) [Compound 12]
MIC90 (A. baumannii 46; [6]): 4 µg/mL (≈ 4.83 µM)
MIC90 (A. baumannii 49; [7]): > 128 µg/mL
MIC90 (A. baumannii 52; [8]): > 128 µg/mL
MIC90 [1, 9]: 1 µg/mL (≈ 1.21 µM)
MIC90 (E. cloacae β19; [10]): 4 µg/mL (≈ 4.83 µM)
MIC90 (E. coli AG100; [11]): 0.25 µg/mL (≈ 0.302 µM)
MIC90 (E. coli β4; [12]): 0.25 µg/mL (≈ 0.302 µM)
MIC90 (K. pneumoniae 2011E; [13]): 2 µg/mL (≈ 2.42 µM)
MIC90 (K. pneumoniae β10; [14]): 0.25 µg/mL (≈ 0.302 µM)
MIC90 (K. pneumoniae β11; [15]): 64 µg/mL (≈ 77.3 µM)
MIC90 (K. pneumoniae β13; [16]): < 0.0625 µg/mL
MIC90 (K. pneumoniae β14; [17]): 8 µg/mL (≈ 9.66 µM)
MIC90 (K. pneumoniae β9; [18]): 0.25 µg/mL (≈ 0.302 µM)
MIC90 (M. catarrhalis 2524; [19]): 1 µg/mL (≈ 1.21 µM)
MIC90 (P. aeruginosa 1912E; [20]): 1 µg/mL (≈ 1.21 µM)
MIC90 (P. aeruginosa 37; [21]): 8 µg/mL (≈ 9.66 µM)
MIC90 (P. aeruginosa 40; [22]): 1 µg/mL (≈ 1.21 µM)
MIC90 (P. aeruginosa 43; [23]): 1 µg/mL (≈ 1.21 µM)
MIC90 (P. aeruginosa 6065Y; read-out: MIC90): 2 µg/mL (≈ 2.42 µM)

CC(C)(O/N=C(\C(=O)N[C@@H]1C(=O)N2C(C(=O)[O-])=C(/C=C/C[n+]3cnc(N)c(NCCNC(=O)c4cc(=O)c(O)cn4O)c3)CSC12)c1csc(N)n1)C(=O)O (some centres unmarked) [Compound 10]
MIC90 (A. baumannii 46; A. baumannii 46): 8 µg/mL (≈ 10 µM)
MIC90 (A. baumannii 49; A. baumannii 49): >128 µg/mL
MIC90 (A. baumannii 52; A. baumannii 52): >128 µg/mL
MIC90 ([1]; A. calcoaceticus ATCC15473): 2 µg/mL (≈ 2.5 µM)
MIC90 (E. cloacae β19): 0.5 µg/mL (≈ 0.625 µM)
MIC90 (E. coli AG100; E. coli AG100): 0.125 µg/mL (≈ 0.156 µM)
MIC90 (E. coli β4): 0.5 µg/mL (≈ 0.625 µM)
MIC90 (K. pneumoniae 2011E; K. pneumoniae 2011E): 2 µg/mL (≈ 2.5 µM)
MIC90 (K. pneumoniae β10; K. pneumoniae β10): <0.0625 µg/mL
MIC90 (K. pneumoniae β11; K. pneumoniae β11): 32 µg/mL (≈ 40 µM)
MIC90 (K. pneumoniae β13; K. pneumoniae β13): 2 µg/mL (≈ 2.5 µM)
MIC90 (K. pneumoniae β14): 8 µg/mL (≈ 10 µM)
MIC90 (K. pneumoniae β9; K. pneumoniae β9): 0.25 µg/mL (≈ 0.313 µM)
MIC90 (M. catarrhalis 2524; [19]): 0.5 µg/mL (≈ 0.625 µM)
MIC90 (P. aeruginosa 1912E): 4 µg/mL (≈ 5 µM)
MIC90 (P. aeruginosa 37; P. aeruginosa 37): 2 µg/mL (≈ 2.5 µM)
MIC90 (P. aeruginosa 40; P. aeruginosa 40): 1 µg/mL (≈ 1.25 µM)
MIC90 (P. aeruginosa 43; P. aeruginosa 43): 1 µg/mL (≈ 1.25 µM)
MIC90 (P. aeruginosa 6065Y; read-out: MIC90): 4 µg/mL (≈ 5 µM)

CC(C)(O/N=C(\C(=O)N[C@@H]1C(=O)N2C(C(=O)[O-])=C(/C=C/C[n+]3cnc(N)c(NCCN)c3)CSC12)c1nc(N)sc1Cl)C(=O)O (some centres unmarked) [Compound 54]
MIC90 (A. baumannii 46; [2]): 4 µg/mL (≈ 5.87 µM)
MIC90 (A. baumannii 49; [3]): 128 µg/mL (≈ 188 µM)
MIC90 (A. baumannii 52; Acinetobacter baumannii, 52): 32 µg/mL (≈ 47 µM)
MIC90 [1, 4]: 1 µg/mL (≈ 1.47 µM)
MIC90 (E. cloacae β19; Enterobacter cloacae): 4 µg/mL (≈ 5.87 µM)
MIC90 (E. coli AG100; Escherichia coli, AG100): 0.25 µg/mL (≈ 0.367 µM)
MIC90 (E. coli β4; Escherichia coli): 0.5 µg/mL (≈ 0.734 µM)
MIC90 (K. pneumoniae 2011E; Klebsiella pneumoniae, 2011E): 1 µg/mL (≈ 1.47 µM)
MIC90 (K. pneumoniae β10; Klebsiella pneumoniae): 0.5 µg/mL (≈ 0.734 µM)
MIC90 (K. pneumoniae β11; Klebsiella pneumoniae): 2 µg/mL (≈ 2.94 µM)
MIC90 (K. pneumoniae β13; Klebsiella pneumoniae): 1 µg/mL (≈ 1.47 µM)
MIC90 (K. pneumoniae β14; Klebsiella pneumoniae): 1 µg/mL (≈ 1.47 µM)
MIC90 (K. pneumoniae β9; Klebsiella pneumoniae): 1 µg/mL (≈ 1.47 µM)
MIC90 (M. catarrhalis 2524; 2524): < 0.0625 µg/mL
MIC90 (P. aeruginosa 1912E; Pseudomonas aeruginosa, 1912E): 2 µg/mL (≈ 2.94 µM)
MIC90 (P. aeruginosa 37; [5]): 4 µg/mL (≈ 5.87 µM)
MIC90 (P. aeruginosa 40; Pseudomonas aeruginosa, 40): 4 µg/mL (≈ 5.87 µM)
MIC90 (P. aeruginosa 43; Pseudomonas aeruginosa, 43): 64 µg/mL (≈ 94 µM)
MIC90 (P. aeruginosa 6065Y; 6065Y): 16 µg/mL (≈ 23.5 µM)
